Measured values as given in ChEMBL document CHEMBL5335808, “Design, synthesis of new 3H-imidazo[4,5-b]pyridine derivatives and evaluation of their inhibitory properties as mixed lineage kinase 3 inhibitors” (Bioorg Med Chem Lett, 2024).

Key:
[1] = Lipophilicity, LogP of the compound; type: physicochemical; details: octanol/water
[2] = Permeability of the compound by PAMPA method; type: ADME; details: read-out: Peff
[3] = target: T1, Mitogen-activated protein kinase kinase kinase 11 (Homo sapiens, UniProt Q16584); assay: Inhibition of human MLK3 by ATP-competitive binding assay
Target sequence in this assay (Q16584 whole entry): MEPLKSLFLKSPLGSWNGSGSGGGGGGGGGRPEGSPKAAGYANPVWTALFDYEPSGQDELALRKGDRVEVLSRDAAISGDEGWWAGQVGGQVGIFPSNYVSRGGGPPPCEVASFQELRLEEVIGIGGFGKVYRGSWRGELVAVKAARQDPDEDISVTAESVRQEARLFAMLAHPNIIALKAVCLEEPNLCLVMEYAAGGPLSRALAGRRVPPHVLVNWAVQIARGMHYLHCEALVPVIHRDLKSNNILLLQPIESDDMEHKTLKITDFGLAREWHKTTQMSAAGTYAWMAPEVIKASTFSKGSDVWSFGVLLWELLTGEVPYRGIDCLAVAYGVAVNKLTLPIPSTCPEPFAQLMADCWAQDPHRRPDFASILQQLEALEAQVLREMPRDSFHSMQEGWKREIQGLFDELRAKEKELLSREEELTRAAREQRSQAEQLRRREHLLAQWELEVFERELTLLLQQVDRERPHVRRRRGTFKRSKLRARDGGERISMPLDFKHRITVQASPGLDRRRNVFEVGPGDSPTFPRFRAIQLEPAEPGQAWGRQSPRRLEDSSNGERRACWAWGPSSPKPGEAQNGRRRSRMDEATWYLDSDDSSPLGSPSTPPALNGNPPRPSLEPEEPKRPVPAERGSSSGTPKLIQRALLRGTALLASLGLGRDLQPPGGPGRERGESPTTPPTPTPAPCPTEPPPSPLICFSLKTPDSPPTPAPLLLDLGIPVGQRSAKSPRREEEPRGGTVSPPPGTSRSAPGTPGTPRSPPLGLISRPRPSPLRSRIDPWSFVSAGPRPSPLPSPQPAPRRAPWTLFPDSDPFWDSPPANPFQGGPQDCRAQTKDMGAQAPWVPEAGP

[4] = target: T1, Mitogen-activated protein kinase kinase kinase 11; assay: Inhibition of human MLK3 at 0.5 uM by ATP-competitive binding assay relative to control
Target sequence in this assay (Q16584 whole entry, looked up): as the sequence (Q16584 whole entry) above

logP [1] | Papp [2] | IC50 [3] | inhibition [4] | Compound
4.86 | 21.2 ×10⁻⁶ cm/s |  |  | CCS(=O)(=O)N1CC[C@H](Nc2c(Br)cnc3nc(-c4cc(C)n(-c5cccc(C(=O)NCCN(C)C)c5C)c4C)[nH]c23)C1
4.81 | 3.42 ×10⁻⁶ cm/s | 27 nM |  | CCS(=O)(=O)N1CC[C@H](Nc2c(Br)cnc3[nH]c(-c4cc(C)n(-c5cccc(C(=O)NCCN(C)C)c5)c4C)nc23)C1
5.06 | 35.7 ×10⁻⁶ cm/s |  |  | CCS(=O)(=O)N1CC[C@H](Nc2c(Br)cnc3[nH]c(-c4cc(C)n(-c5cc(C(=O)N6CCN(C)CC6)ccc5C)c4C)nc23)C1
3.69 | 15.2 ×10⁻⁶ cm/s | 6 nM |  | CCS(=O)(=O)N1CC[C@H](Nc2c(Br)cnc3[nH]c(-c4cc(C)n(-c5cccc(C(=O)N6CCOCC6)c5)c4C)nc23)C1
 |  |  | 21% | CC(C)c1nn(C)cc1-c1nc2cc(Br)cnc2[nH]1
3.92 | 13.1 ×10⁻⁶ cm/s | 6 nM |  | CCS(=O)(=O)N1CC[C@H](Nc2c(Br)cnc3[nH]c(-c4cc(C)n(-c5ccc(C(=O)N6CCOCC6)cc5)c4C)nc23)C1
5.89 |  |  |  | CCS(=O)(=O)N1CC[C@H](Nc2c(Br)cnc3[nH]c(-c4cc(C)n(-c5cc(NC(=O)CN6CCN(C)CC6)ccc5C)c4C)nc23)C1
4.53 | 48.7 ×10⁻⁶ cm/s |  |  | CCS(=O)(=O)N1CC[C@H](Nc2c(Br)cnc3[nH]c(-c4cc(C)n(-c5ccc(NC(=O)CN(C)C)cc5C)c4C)nc23)C1
3.86 | 2.53 ×10⁻⁶ cm/s |  |  | CCS(=O)(=O)N1CC[C@H](Nc2c(Br)cnc3[nH]c(-c4cc(C)n(-c5ccc(C(=O)NCCN(C)C)cc5)c4C)nc23)C1
3.52 | 8.91 ×10⁻⁶ cm/s |  |  | CCS(=O)(=O)N1CC[C@H](Nc2c(Br)cnc3[nH]c(-c4cc(C)n(-c5ccc(C(=O)N(C)CCN(C)C)cc5)c4C)nc23)C1
5.16 | 13.9 ×10⁻⁶ cm/s | 25 nM |  | CCS(=O)(=O)N1CC[C@H](Nc2c(Br)cnc3[nH]c(-c4cc(C)n(-c5ccc(C(=O)N6CCN(C)CC6)cc5C)c4C)nc23)C1
4.28 | 47.8 ×10⁻⁶ cm/s |  |  | CCS(=O)(=O)N1CC[C@H](Nc2c(Br)cnc3nc(-c4cc(C)n(-c5cccc(NC(=O)CN6CCOCC6)c5C)c4C)[nH]c23)C1
5.17 | 55.9 ×10⁻⁶ cm/s |  |  | CCS(=O)(=O)N1CC[C@H](Nc2c(Br)cnc3nc(-c4cc(C)n(-c5cccc(NC(=O)CN(C)C)c5C)c4C)[nH]c23)C1

Compound | logP [1] | Papp [2] | IC50 [3] | inhibition [4]
O=C1Nc2ccc3ncsc3c2/C1=C/c1c[nH]cn1 |  |  | 144 nM | 
